Laboratory results reported in patent US12115152B2, “Pan-RAF kinase inhibitor and use thereof” (HEFEI INSTITUTES OF PHYSICAL SCIENCE, CHINESE ACADEMY OF …, priority 2019, dated 2024).
Where “and” joins values, the source holds several entries; their conditions need not be identical. Identical values can stand only once. Like-named read-outs stand apart in the source and are kept apart here.

Test: Pharmacokinetic parameters in rats
Type: in vivo, SD rats
Settings: rat
Experimental: In the example, SD rats (180-220 g, male) (purchased from Experimental Animal Center of Anhui Medical University, China) were used. The animals were kept in cages ventilated independently with 6 rats per cage. The feeding was performed at a temperature of 20˜26° C. and a humidity of 35-75%. The light condition was 12 hours of lighting/12 hours of darkness. The corncob bedding was refreshed once a week. The rats were fed with foods and drinking water on an ad libitum basis. The rats were marked with a number on the tails. During the experiment, the breeding and use of animals strictly follow the regulations of Association for Assessment and Accreditation of Laboratory Animal Care International.
Solutions of Compound 16 and Comparative Compound 1 were prepared as follows. 10 mg of the compound to be tested was precisely weighed into a sterile vial, and was dissolved with a small amount of DMSO, and then was made to a constant volume of 5 ml with 5% glucose solution, to give a gavage test solution at a concentration of 2 mg/mL. 0.5 ml of the above gavage test solution at a concentration of 2 mg/mL was precisely taken, and was made to constant volume of 5 ml with 4.5 ml of 5% glucose solution, to give an intravenous injection test solution at a concentration of 0.2 mg/mL. The solution was prepared immediately before being used in the experiment.
6 SD rats were randomly divided into two groups, and the synthesized compounds were administered by gavage and tail vein injection, respectively. About 0.3 mL of blood samples were collected from the retro-orbital venous plexus at 0 h before administration and at 5 min, 15 min, 30 min, 1 h, 1.5 h, 2 h, 4 h, 6 h, 9 h, 12 h, 24 h after administration for the gavage group; and at 0 h before administration and at 2 min, 5 min, 15 min, 30 min, 1 h, 2 h, 4 h, 6 h, 9 h, and 12 h after administration for the tail vein group. Each of the collected blood samples was put in a 1.5 mL centrifuge tube with heparin (Sigma, USA). The sample was centrifuged at 6000 rpm for 3 min to separate the plasma. 100 μL of plasma in the upper layer was placed into a new 1.5 mL centrifuge tube, and stored at −80° C. for determination. 10 mg of a standard for the compound to be tested was precisely weighed into a 10 mL volumetric flask, and was dissolved by adding methanol to make a constant volume and mixed uniformly, to give a 1 mg/mL stock solution. The stock solution was then diluted gradually with methanol to give a series of working solutions at concentrations of 0.01, 0.02, 0.05, 0.1, 0.2, 0.5, 1, 2, 5, 10, 20 μg/mL. The working solutions were placed in a refrigerator at 4° C. for later use. 11 centrifuge tubes were used. 10 μL of the above working solutions was respectively added to each of the centrifuge tubes, and then 90 μL of blank rat plasma was respectively added therein. The mixtures were mixed uniformly, so that the concentration of the compound in the rat plasma was 1, 2, 5, 10, 20, 50, 100, 200, 500, 1000, 2000 ng/mL. Then, 20 μL of a solution of caffeine as the internal standard (200 ng/mL) (National Institutes for Food and Drug Control, China) was added therein, and the resultant mixtures were vortexed for 10 s. Next, 400 μL of methanol was added. The resultant mixtures were vortexed for 10 min, and centrifuged at 16000 rpm for 5 min. Thereafter, 70 μL of the supernatant was placed into the inserted pipe of a sampling bottle. 5 μL of the sample was introduced for a LC-MS/MS analysis. A standard curve of the compound in the rat plasma was obtained by means of a linear regression performed by taking the ratio of the peak area of the sample to that of the internal standard As/Ais as the vertical ordinate, taking the concentration C (μg/mL) as the horizontal ordinate, and taking 1/C^2 was taken as a weighting coefficient.
To 100 μL of the rat plasma to be tested stored at −80° C., 20 μL of a caffeine solution (200 ng/mL) as the internal standard was added. The resultant mixture was vortexed for 10 s. […]

[1] = male, Sprague-Dawley, plasma, iv, 1 mg/kg, intravenous injection 1 mg/kg, average n=3
[2] = male, Sprague-Dawley, plasma, iv, 1 mg/kg, intravenous injection 1 mg/kg, individual rats #1-#3
[3] = intravenous injection 1 mg/kg, average n=3
[4] = intravenous injection 1 mg/kg, individual rats #1-#3, listed as Comparative Compound 1, 1 mg/kg
[5] = oral administration (gavage) 10 mg/kg, average n=3
[6] = oral administration (gavage) 10 mg/kg, individual rats #1-#3, listed as Comparative Compound 1, 10 mg/kg

`Cc1ccc(NC(=O)c2cccc(C(F)(F)F)c2)cc1-n1cc(-c2cccnc2)cn1` [compound 1, 3-trifluoromethyl-N-(4-methyl-3-(4-(pyrid-3-yl)-1H-pyrazol-1-yl)phenyl)benzamide, reference compound] showed an AUC(0-inf) (male, SD, plasma, po, 10 mg/kg, oral administration (gavage) 10 mg/kg, average n=3) of 1020 ng·h/mL, a Tmax (male, SD, plasma, po, 10 mg/kg, oral administration (gavage) 10 mg/kg, average n=3, read-out: Tmax) of 30 min and a half-life (male, SD, plasma, po, 10 mg/kg, oral administration (gavage) 10 mg/kg, average n=3, read-out: T½ (converted)) of 54.4 min. It also gave a Tmax (male, SD, plasma, po, 10 mg/kg, oral administration (gavage) 10 mg/kg, individual rats #1-#3, read-out: Tmax) of 30 min, a half-life (male, SD, plasma, po, 10 mg/kg, oral administration (gavage) 10 mg/kg, individual rats #1-#3, read-out: T½ (converted)) of 60.2 min and an AUC(0-inf) [1] of 92.5 ng·h/mL. The clearance [1] was 188 mL/min/kg, the AUC0-t (male, Sprague-Dawley, plasma, iv, 1 mg/kg, intravenous injection 1 mg/kg, average n=3, read-out: AUC0-t) was 91.6 ng·h/mL and the C0 (male, Sprague-Dawley, plasma, iv, 1 mg/kg, intravenous injection 1 mg/kg, average n=3, read-out: C0) was 348 ng/mL. The Cmax (male, Sprague-Dawley, plasma, iv, 1 mg/kg, intravenous injection 1 mg/kg, average n=3, read-out: Cmax) was 262 ng/mL, the MRT last (male, Sprague-Dawley, plasma, iv, 1 mg/kg, intravenous injection 1 mg/kg, average n=3, read-out: MRT0-t) was 34 min and the MRT inf (male, Sprague-Dawley, plasma, iv, 1 mg/kg, intravenous injection 1 mg/kg, average n=3, read-out: MRT0-∞) was 37 min. For the same compound, the Tmax (male, Sprague-Dawley, plasma, iv, 1 mg/kg, intravenous injection 1 mg/kg, average n=3, read-out: Tmax) was 1.98 min, the half-life (male, Sprague-Dawley, plasma, iv, 1 mg/kg, intravenous injection 1 mg/kg, average n=3, read-out: T½ (converted)) was 42.9 min and the Vd (male, Sprague-Dawley, plasma, iv, 1 mg/kg, intravenous injection 1 mg/kg, average n=3, read-out: Vz) was 12 L/kg. For the same compound, the AUC(0-inf) [2] was 84 ng·h/mL, the clearance [2] was 198 mL/min/kg and the AUC0-t (male, Sprague-Dawley, plasma, iv, 1 mg/kg, intravenous injection 1 mg/kg, individual rats #1-#3, read-out: AUC0-t) was 83.3 ng·h/mL. For the same compound, the C0 (male, Sprague-Dawley, plasma, iv, 1 mg/kg, intravenous injection 1 mg/kg, individual rats #1-#3, read-out: C0) was 260 ng/mL, the Cmax (male, Sprague-Dawley, plasma, iv, 1 mg/kg, intravenous injection 1 mg/kg, individual rats #1-#3, read-out: Cmax) was 200 ng/mL and the MRT last (male, Sprague-Dawley, plasma, iv, 1 mg/kg, intravenous injection 1 mg/kg, individual rats #1-#3, read-out: MRT0-t) was 36.3 min. The MRT inf (male, Sprague-Dawley, plasma, iv, 1 mg/kg, intravenous injection 1 mg/kg, individual rats #1-#3, read-out: MRT0-∞) was 38.5 min, the Tmax (male, Sprague-Dawley, plasma, iv, 1 mg/kg, intravenous injection 1 mg/kg, individual rats #1-#3, read-out: Tmax) was 1.98 min and the half-life (male, Sprague-Dawley, plasma, iv, 1 mg/kg, intravenous injection 1 mg/kg, individual rats #1-#3, read-out: T½ (converted)) was 38.8 min. For the same compound, the bioavailability (male, Sprague-Dawley, plasma, oral, 10 mg/kg, oral administration (gavage) 10 mg/kg vs intravenous 1 mg/kg, average n=3, read-out: F (oral bioavailability)) was 111%, the AUC0-t (male, Sprague-Dawley, plasma, po, 10 mg/kg, oral administration (gavage) 10 mg/kg, average n=3, read-out: AUC0-t) was 1010 ng·h/mL and the Cmax (male, Sprague-Dawley, plasma, po, 10 mg/kg, oral administration (gavage) 10 mg/kg, average n=3, read-out: Cmax) was 576 ng/mL. The MRT last (male, Sprague-Dawley, plasma, po, 10 mg/kg, oral administration (gavage) 10 mg/kg, average n=3, read-out: MRT0-t) was 93.7 min, the MRT inf (male, Sprague-Dawley, plasma, po, 10 mg/kg, oral administration (gavage) 10 mg/kg, average n=3, read-out: MRT0-∞) was 98.5 min and the MRT last (male, Sprague-Dawley, plasma, po, 10 mg/kg, oral administration (gavage) 10 mg/kg, individual rats #1-#3, read-out: MRT0-t) was 109 min. For the same compound, the MRT inf (male, Sprague-Dawley, plasma, po, 10 mg/kg, oral administration (gavage) 10 mg/kg, individual rats #1-#3, read-out: MRT0-∞) was 115 min, the AUMC0-t [3] was 53.50 hr*hr*ng/ml and the “AUMC0-∞” value [3] was 58.31 hr*hr*ng/ml. The AUC0-t [4] was 71.86 ng·h/mL and 119.59 ng·h/mL, the “AUC0-∞” value [4] was 73.08 ng·h/mL and 120.51 ng·h/mL and the AUMC0-t [4] was 50.39 hr*hr*ng/ml and 31.52 hr*hr*ng/ml and 78.58 hr*hr*ng/ml. The “AUMC0-∞” value [4] was 53.89 hr*hr*ng/ml and 37.99 hr*hr*ng/ml and 83.06 hr*hr*ng/ml, the C0 [4] was 402.4 ng/mL and 380.8 ng/mL and the Cl [4] was 228.07 mL/min/kg and 138.3 mL/min/kg. For the same compound, the Cmax [4] was 285.0 ng/mL and 300.0 ng/mL, the MRT0-t [4] was 26.3 min and 39.4 min and the “MRT0-∞” value [4] was 31.2 min and 41.3 min. The T½ [4] was 54.4 min and 35.5 min, the Vz [4] was 11.101 L/kg and 17.886 L/kg and 7.085 L/kg and the “F (oral bioavailability)” value (oral administration (gavage) 10 mg/kg vs intravenous 1 mg/kg, individual rats #1-#3, listed as Comparative Compound 1) was 31.2% and 133.6% and 167.2%. For the same compound, the AUMC0-t [5] was 1474 hr*hr*ng/ml, the “AUMC0-∞” value [5] was 1566 hr*hr*ng/ml and the Cl [5] was 273.12 mL/min/kg. The Vz [5] was 22.672 L/kg, the AUC0-t [6] was 285.6 ng·h/mL and 1217 ng·h/mL and 1532 ng·h/mL and the “AUC0-∞” value [6] was 289.0 ng·h/mL and 1236 ng·h/mL and 1547 ng·h/mL. For the same compound, the AUMC0-t [6] was 518.7 hr*hr*ng/ml and 1889 hr*hr*ng/ml and 2013 hr*hr*ng/ml, the “AUMC0-∞” value [6] was 554.4 hr*hr*ng/ml and 2023 hr*hr*ng/ml and 2121 hr*hr*ng/ml and the Cl [6] was 576.77 mL/min/kg and 134.8 mL/min/kg and 107.8 mL/min/kg. For the same compound, the Cmax [6] was 138 ng/mL and 579 ng/mL and 1010 ng/mL, the MRT0-t [6] was 93.12 min and 78.84 min and the “MRT0-∞” value [6] was 98.22 min and 82.26 min. The T½ [6] was 49.3 min and 53.6 min and the Vz [6] was 50.104 L/kg and 9.579 L/kg and 8.334 L/kg.
